According to ChEMBL document CHEMBL1201862, “PubChem BioAssay data set” (2004):
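These data come from cells grown in 96-well plates and exposed to compound for 48 hours at five concentrations. At the GI50, growth is halved.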 Calls of active or inactive are those of the source. Cut-off read from the data, not from the text of the source: active = GI50 up to about 1.1 µM and inactive = higher.

Assays:
Experiment in all cases: growth of human tumour cells (NCI), 48 h
LOX IMVI = system: LOX IMVI
SNB-19 = system: SNB-19
SK-MEL-28 = system: SK-MEL-28
COLO 205 = system: COLO 205
OVCAR-8 = system: OVCAR-8
SK-OV-3 = system: SK-OV-3
SK-MEL-2 = system: SK-MEL-2
PC-3 = system: PC-3
SNB-75 = system: SNB-75
MDA-N = system: MDA-N
SF-268 = system: SF-268
BT-549 = system: BT-549
HCT-116 = system: HCT-116
NCI-H23 = system: NCI-H23
IGROV-1 = system: IGROV-1
U-251 = system: U-251
NCI-H522 = system: NCI-H522
HOP-92 = system: HOP-92
MOLT-4 = system: MOLT-4
HOP-62 = system: HOP-62
EKVX = system: EKVX
SF-295 = system: SF-295
ACHN = system: ACHN
SW-620 = system: SW-620
HL-60 = system: HL-60
MCF7 = system: MCF7
RPMI-8226 = system: RPMI-8226
CCRF-CEM = system: CCRF-CEM
M14 = system: M14
HCT-15 = system: HCT-15
A549 = system: A549
T47D = system: T47D
HT-29 = system: HT-29
786-0 = system: 786-0
MDA-MB-231 = system: MDA-MB-231
Hs-578T = system: Hs-578T
TK-10 = system: TK-10
DU-145 = system: DU-145
NCI/ADR-RES = system: NCI/ADR-RES
SK-MEL-5 = system: SK-MEL-5
UACC-62 = system: UACC-62
A498 = system: A498
SR = system: SR
SN12C = system: SN12C
HCC 2998 = system: HCC 2998
RXF 393 = system: RXF 393
NCI-H460 = system: NCI-H460
K562 = system: K562
OVCAR-5 = system: OVCAR-5
UO-31 = system: UO-31
UACC-257 = system: UACC-257
Malme-3M = system: Malme-3M
NCI-H226 = system: NCI-H226

Measured: GI50

NCCCN(CCCN(C(=O)Nc1ccccc1)c1ccccc1)C(=O)Nc1ccccc1
inactive: LOX IMVI 23.5 µM | SNB-19 52.4 µM | SK-MEL-28 16.7 µM | COLO 205 36.8 µM | OVCAR-8 49.3 µM | SK-OV-3 45.6 µM | SK-MEL-2 21.9 µM | PC-3 33.7 µM | SNB-75 23.2 µM | MDA-N 40.5 µM | SF-268 32.6 µM | BT-549 31 µM | HCT-116 18.6 µM | NCI-H23 27.2 µM | IGROV-1 51.1 µM | U-251 36.6 µM | NCI-H522 20.2 µM | HOP-92 27.2 µM | MOLT-4 52 µM | HOP-62 25.1 µM | EKVX 58.7 µM | SF-295 23.2 µM | ACHN 55.7 µM | SW-620 21.3 µM | HL-60 28.1 µM | MCF7 35.1 µM | RPMI-8226 27.7 µM | CCRF-CEM 59.2 µM | M14 19.4 µM | A549 47.1 µM | T47D 28.2 µM | HT-29 29.8 µM | 786-0 33 µM | MDA-MB-231 59.6 µM | Hs-578T 32.7 µM | TK-10 38.4 µM | DU-145 36.8 µM | NCI/ADR-RES 69.5 µM | SK-MEL-5 18.5 µM | UACC-62 23.1 µM | A498 87.1 µM | SR 45 µM | SN12C 64.9 µM | HCC 2998 25.6 µM | RXF 393 24.5 µM | NCI-H460 31 µM | K562 34.9 µM | OVCAR-5 43.2 µM | UO-31 20.8 µM | UACC-257 22 µM | Malme-3M 20 µM | NCI-H226 44 µM
28.9 µM: HCT-15
